# From PubChem BioAssay AID1552 (Sanford-Burnham Center for Chemical Genomics, 2009)
# Active and inactive are the calls of the source. The rule behind the calls is not given here.
# Molecular target: Ubiquitin-conjugating enzyme E2 N (Homo sapiens) (UniProt P61088)
# Assay: NMR detection of UBE2N ligand binding – biophysical, purified protein (AID 1552)
# Settings: NMR binding to purified UBE2N
# Chain of Ubiquitin-conjugating enzyme E2 N (Homo sapiens) (P61088 whole entry, looked up): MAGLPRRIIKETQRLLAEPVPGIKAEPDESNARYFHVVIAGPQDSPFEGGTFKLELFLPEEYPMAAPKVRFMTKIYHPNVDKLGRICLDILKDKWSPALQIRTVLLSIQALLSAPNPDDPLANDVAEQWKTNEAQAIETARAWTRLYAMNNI
row,SMILES,Kd
1,O=c1[nH]cc(S(=O)(=O)N2CCc3ccccc32)c(=O)[nH]1,> 4 mM (inactive)
2,COc1cccc(/C=C2/SC(N)=NC2=O)c1,> 4 mM (inactive)
3,Cc1nnsc1C(=O)Nc1ccc(C(N)=O)cc1,> 4 mM (inactive)
4,Cc1noc(C)c1C(=O)Nc1sc(C)c(C)c1C#N,> 4 mM (inactive)
5,Nc1ccn(C2O[C@H](CO)[C@@H](O)[C@H]2O)c(=O)n1 (stereo not given in full),> 4 mM (inactive)
6,C[C@@H]1O[C@@H](O[C@H]2CC[C@]3(C=O)C4CC[C@]5(C)[C@@H](C6=CC(=O)OC6)CC[C@]5(O)C4CC[C@]3(O)C2)[C@H](O)[C@H](O)[C@H]1O (stereo not given in full),> 4 mM (inactive)
7,Cc1cc(C(=O)Nc2sc(C)c(C)c2C#N)c(C)o1,> 4 mM (inactive)
8,O=C1CCCc2c(O)cccc21,> 4 mM (inactive)
9,O=c1cc(-c2ccc(O)cc2)[nH]c(=S)[nH]1,> 4 mM (inactive)
10,COc1cc(C(=S)N2CCCC2)cc(Cl)c1O,> 4 mM (inactive)
11,NC(=O)C1CC2C=CC1C2 (stereo not given),> 4 mM (inactive)
12,Cc1cc(NC(=O)CCCn2cnc([N+](=O)[O-])n2)no1,> 4 mM (inactive)
13,COc1c(OC)c2occc2c2oc(=O)ccc12,> 4 mM (inactive)
14,COc1ccc(-c2c(O)c3c(OC)c4c(cc3oc2=O)OC(C)(C)CC4)cc1,> 4 mM (inactive)
15,CCCSc1nnc2[nH]c(=O)cc(N)n12,> 4 mM (inactive)
16,c1ccc(CNc2ncnc3nc[nH]c23)nc1,> 4 mM (inactive)
17,O=C(NC(=S)NC1CCSC1=O)c1ccco1 (stereo not given),> 4 mM (inactive)
18,Cn1cnc2c(=S)[nH]c(=O)n(Cc3ccccc3)c21,> 4 mM (inactive)
19,COc1ccc(-c2cc(=O)c3ccccc3o2)cc1,> 4 mM (inactive)
20,CC(C)c1c(O)c(-c2cc3c(c(C(C)C)c2O)CCC2C(C)(C)CCC[C@]32C)cc2c1CCC1C(C)(C)CCC[C@]21C (stereo not given in full),> 4 mM (inactive)

row,SMILES,Kd
1,Cc1[nH]c2ccccc2c1C(=O)CSc1ncn[nH]1,> 4 mM (inactive)
2,CC1CCN(S(=O)(=O)N(C)C)CC1,> 4 mM (inactive)
3,CC(=O)Nc1cccc(Cn2cccn2)c1,> 4 mM (inactive)
4,Cc1cc(C(=O)NCc2cccnc2)no1,> 4 mM (inactive)
5,Nc1nsc(-c2ccccc2)n1,> 4 mM (inactive)
6,COc1cc(C)c2c(c1C=O)Oc1c(c(C)c(O)c3c1C(O)OC3=O)OC2=O (stereo not given),> 4 mM (inactive)
7,O=C1CC(C(=O)O)c2ccccc21 (stereo not given),> 4 mM (inactive)
8,O=C(O)CSCC(=O)Nc1cccc(O)c1,> 4 mM (inactive)
9,NCCc1nc2ccccc2[nH]1,> 4 mM (inactive)
10,C=C1C(=O)O[C@@H]2C[C@@]3(C)CCC[C@H](C)C3=C[C@H]12,> 4 mM (inactive)
11,Cc1nc2ccccc2c(=O)n1-c1cccc(O)c1,> 4 mM (inactive)
12,COc1ccc(-c2oc3cc(O[C@H]4O[C@H](CO)[C@@H](O)[C@H](O)[C@H]4O)c(OC)c(O)c3c(=O)c2OC)cc1O,> 4 mM (inactive)
13,COC(=O)CSc1nnc(-c2ccc(C(=O)O)cc2)o1,> 4 mM (inactive)
14,NC(=O)CSc1nnc(-c2cccnc2)o1,> 4 mM (inactive)
15,Cc1[nH]c(=O)[nH]c(=O)c1N1CCOCC1,> 4 mM (inactive)
16,CN(C)c1ccc2c(=O)[nH][nH]c(=O)c2c1,> 4 mM (inactive)
17,O=C(NN1C(=O)C2C3C=CC(C3)C2C1=O)C1CC=CCC1 (stereo not given),> 4 mM (inactive)
18,Cc1nnc2sc(-c3ccco3)nn12,> 4 mM (inactive)
19,NCC(O)c1ccc(O)cc1 (stereo not given),> 4 mM (inactive)
20,O=c1c2ccccc2nc2n1CCCCN2,> 4 mM (inactive)

row,SMILES,Kd
1,CS(=O)(=O)N1CCN(C(=O)Cc2cccs2)CC1,> 4 mM (inactive)
2,OCCOc1ccc(C2=NCCO2)cc1,> 4 mM (inactive)
3,Cc1sc2nc(C)n(NC(N)=O)c(=O)c2c1C,> 4 mM (inactive)
4,O=C1c2ccncc2C(=O)N1CO,> 4 mM (inactive)
5,O=c1c[n+]([O-])c2ccccc2n1OCc1ccccc1,> 4 mM (inactive)
6,COc1nc(C)ccc1-c1noc(-c2ccco2)n1,> 4 mM (inactive)
7,C/C(O)=c1/sc2cc(C)nc(=N)n2c1=O,> 4 mM (inactive)
8,CC(C)[C@@H]1CC[C@@H](C)CC1=O,> 4 mM (inactive)
9,Cc1c(CO)cnn1-c1ccccc1,> 4 mM (inactive)
10,O=C(O)c1snnc1-c1ccccc1,> 4 mM (inactive)
11,O=C(O)c1sccc1-n1cccc1,> 4 mM (inactive)
12,Clc1ncc2[nH]cnc2n1,> 4 mM (inactive)
13,COc1ccccc1-c1nc(-c2ccc(C)nc2OC)no1,> 4 mM (inactive)
14,Cn1nnc2c(Cl)ncnc21,> 4 mM (inactive)
15,Cn1nnc2c(N3CCC(C(N)=O)CC3)ncnc21,> 4 mM (inactive)
16,O=C(Nc1nnc(-c2ccncc2)o1)c1cccs1,> 4 mM (inactive)
17,O=c1ccn(Cc2ccccc2)c(=O)[nH]1,> 4 mM (inactive)
18,Nc1cccc(F)c1-c1ncon1,> 4 mM (inactive)
19,Cn1c(NCC(=O)O)nc2c1c(=O)[nH]c(=O)n2C,> 4 mM (inactive)
20,c1coc(CNc2ncnc3nc[nH]c23)c1,> 4 mM (inactive)
